Measurements from patent US20260297085A1, “1 H-PYRROLO[2,3-B]PYRIDIN-4-YL]-2-OXOPYRROLIDINE-3-CARBONITRILE DERIVATIVES AS TYROSINE KINASE 2 (TYK2) INHIBITORS FOR THE TREATMENT OF INFLAMMATORY DISEASES” (BIOGEN MA INC., priority 2023, published 2026).
Where a name gives a salt, the structure may show the parent alone.

What was measured:
[1] = target: T1, human JAK1 kinase domain (JH1) (Homo sapiens, UniProt P23458); assay: JH1 biochemical assay for JAK1 (ADP-Glo kinase assay, recombinant JH1 catalytic domain, JAK3-342 peptide, 35 μM ATP)
T1 construct: recombinantly generated catalytic kinase (also known as JH1) domain of human JAK1, JAK2, JAK3 and TYK2
T1 sequence (P23458 875-1153 limits assumed): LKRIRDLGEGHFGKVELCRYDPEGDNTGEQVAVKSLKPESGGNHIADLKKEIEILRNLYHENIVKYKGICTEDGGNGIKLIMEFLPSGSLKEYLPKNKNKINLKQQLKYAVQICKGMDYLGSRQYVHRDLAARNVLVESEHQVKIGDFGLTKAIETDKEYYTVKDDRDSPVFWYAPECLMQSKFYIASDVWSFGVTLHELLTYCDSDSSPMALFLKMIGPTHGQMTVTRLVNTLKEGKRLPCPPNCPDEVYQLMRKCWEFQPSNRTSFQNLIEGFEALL
How it was run: (§1)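 Enzyme levels: JAK1 4 nM, JAK2 0.2 nM, JAK3 0.3 nM, TYK2 2 nM. Peptide substrate at 50 μM. Reactions ran 100 minutes; ADP formed was converted to luciferase luminescence after ATP depletion. Compounds tested from 10 μM or 1 μM top, 11-point 3-fold dilutions; IC50 from 4-parameter logistic fit of normalized percent activity.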

[2] = target: T2, human TYK2 kinase domain (JH1) (Homo sapiens, UniProt P29597); assay: JH1 biochemical assay for TYK2 (ADP-Glo kinase assay, recombinant JH1 catalytic domain, JAK3-974 peptide, 10 μM ATP)
T2 construct: recombinantly generated catalytic kinase (also known as JH1) domain of human JAK1, JAK2, JAK3 and TYK2
T2 sequence (P29597 897-1176 limits assumed): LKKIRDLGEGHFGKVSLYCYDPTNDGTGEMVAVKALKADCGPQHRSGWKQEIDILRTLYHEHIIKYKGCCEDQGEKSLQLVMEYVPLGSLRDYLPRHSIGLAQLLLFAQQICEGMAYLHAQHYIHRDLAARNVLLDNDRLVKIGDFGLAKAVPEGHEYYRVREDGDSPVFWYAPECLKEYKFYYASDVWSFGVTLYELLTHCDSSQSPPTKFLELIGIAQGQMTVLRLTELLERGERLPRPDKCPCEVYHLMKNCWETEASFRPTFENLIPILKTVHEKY
How it was run: as §1

[3] = target: T3, human JAK2 kinase domain (JH1) (Homo sapiens, UniProt O60674); assay: JH1 biochemical assay for JAK2 (ADP-Glo kinase assay, recombinant JH1 catalytic domain, JAK3-974 peptide, 15 μM ATP)
T3 construct: recombinantly generated catalytic kinase (also known as JH1) domain of human JAK1, JAK2, JAK3 and TYK2
T3 sequence (O60674 849-1124 limits assumed): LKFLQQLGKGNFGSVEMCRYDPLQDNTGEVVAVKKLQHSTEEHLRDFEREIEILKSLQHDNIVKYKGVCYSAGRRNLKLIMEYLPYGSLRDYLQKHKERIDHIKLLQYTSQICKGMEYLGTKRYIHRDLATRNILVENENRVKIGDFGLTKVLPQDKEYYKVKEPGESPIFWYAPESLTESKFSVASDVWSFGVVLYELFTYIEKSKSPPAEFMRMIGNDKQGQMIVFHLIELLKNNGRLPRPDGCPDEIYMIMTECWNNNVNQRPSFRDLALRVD
How it was run: as §1

[4] = target: T4, human JAK3 kinase domain (JH1) (Homo sapiens, UniProt P52333); assay: JH1 biochemical assay for JAK3 (ADP-Glo kinase assay, recombinant JH1 catalytic domain, JAK3-974 peptide, 4 μM ATP)
T4 construct: recombinantly generated catalytic kinase (also known as JH1) domain of human JAK1, JAK2, JAK3 and TYK2
T4 sequence (P52333 822-1111 limits assumed): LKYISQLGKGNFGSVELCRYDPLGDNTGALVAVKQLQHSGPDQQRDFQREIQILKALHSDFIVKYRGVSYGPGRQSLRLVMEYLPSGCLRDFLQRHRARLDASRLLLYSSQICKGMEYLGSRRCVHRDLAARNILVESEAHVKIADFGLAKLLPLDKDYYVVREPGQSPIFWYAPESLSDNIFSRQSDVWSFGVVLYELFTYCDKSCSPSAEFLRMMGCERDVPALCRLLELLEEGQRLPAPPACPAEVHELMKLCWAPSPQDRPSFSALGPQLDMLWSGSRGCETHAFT
How it was run: as §1

[5] = target: JAK1 kinase activity on STAT3 in TF1 cells (Homo sapiens, UniProt P23458); assay: pSTAT3 cell assay (MSD; TF1 cells, 30 ng/mL IL-6 stimulation); format: cell-based; conditions: 30 ng/mL IL-6, 15 minutes
Chain of JAK1 kinase activity on STAT3 in TF1 cells (P23458 whole entry): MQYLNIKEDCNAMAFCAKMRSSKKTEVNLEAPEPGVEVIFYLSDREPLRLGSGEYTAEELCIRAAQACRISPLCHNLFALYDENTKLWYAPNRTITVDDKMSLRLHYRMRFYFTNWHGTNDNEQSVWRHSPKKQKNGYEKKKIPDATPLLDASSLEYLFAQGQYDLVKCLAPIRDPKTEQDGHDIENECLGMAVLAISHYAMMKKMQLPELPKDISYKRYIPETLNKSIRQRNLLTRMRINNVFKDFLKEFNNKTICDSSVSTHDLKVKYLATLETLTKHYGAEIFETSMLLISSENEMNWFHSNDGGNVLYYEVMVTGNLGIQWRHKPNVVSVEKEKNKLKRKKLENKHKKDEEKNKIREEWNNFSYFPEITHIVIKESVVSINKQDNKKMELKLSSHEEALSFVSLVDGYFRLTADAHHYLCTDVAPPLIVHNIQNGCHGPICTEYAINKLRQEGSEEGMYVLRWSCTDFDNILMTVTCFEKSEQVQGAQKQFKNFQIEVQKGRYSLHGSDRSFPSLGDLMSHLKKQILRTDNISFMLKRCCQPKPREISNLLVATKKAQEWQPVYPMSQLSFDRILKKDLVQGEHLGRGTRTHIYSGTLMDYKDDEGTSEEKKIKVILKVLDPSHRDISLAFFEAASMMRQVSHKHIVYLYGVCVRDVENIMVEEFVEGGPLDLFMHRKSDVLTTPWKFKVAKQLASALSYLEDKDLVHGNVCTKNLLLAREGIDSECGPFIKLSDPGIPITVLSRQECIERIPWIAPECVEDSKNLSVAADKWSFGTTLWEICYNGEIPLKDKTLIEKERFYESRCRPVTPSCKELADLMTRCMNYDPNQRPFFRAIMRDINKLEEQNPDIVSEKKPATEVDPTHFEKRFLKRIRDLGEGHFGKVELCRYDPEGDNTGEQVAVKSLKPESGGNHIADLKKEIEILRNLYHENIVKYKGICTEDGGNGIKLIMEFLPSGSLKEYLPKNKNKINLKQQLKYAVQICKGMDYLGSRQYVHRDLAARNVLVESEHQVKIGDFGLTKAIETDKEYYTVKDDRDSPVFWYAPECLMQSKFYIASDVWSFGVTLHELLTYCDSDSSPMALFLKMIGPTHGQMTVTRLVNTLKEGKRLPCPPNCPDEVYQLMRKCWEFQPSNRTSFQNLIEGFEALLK
How it was run: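 Serum-starved TF1 cells were pretreated with compound for 1 hour (10-point, four-fold dilutions from 10 μM), then stimulated with IL-6 for 15 minutes. Lysates were assayed for pSTAT3 by MSD with anti-STAT3 antibodies; IC50 came from a 4-parameter logistic fit of normalized percent activity.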

[6] = target: JAK2 kinase activity on STAT5 in TF1 cells (Homo sapiens, UniProt O60674); assay: pSTAT5 cell assay (MSD; TF1 cells, 30 ng/mL IL-3 stimulation); format: cell-based; conditions: 30 ng/mL IL-3, 15 minutes
Chain of JAK2 kinase activity on STAT5 in TF1 cells (O60674 whole entry): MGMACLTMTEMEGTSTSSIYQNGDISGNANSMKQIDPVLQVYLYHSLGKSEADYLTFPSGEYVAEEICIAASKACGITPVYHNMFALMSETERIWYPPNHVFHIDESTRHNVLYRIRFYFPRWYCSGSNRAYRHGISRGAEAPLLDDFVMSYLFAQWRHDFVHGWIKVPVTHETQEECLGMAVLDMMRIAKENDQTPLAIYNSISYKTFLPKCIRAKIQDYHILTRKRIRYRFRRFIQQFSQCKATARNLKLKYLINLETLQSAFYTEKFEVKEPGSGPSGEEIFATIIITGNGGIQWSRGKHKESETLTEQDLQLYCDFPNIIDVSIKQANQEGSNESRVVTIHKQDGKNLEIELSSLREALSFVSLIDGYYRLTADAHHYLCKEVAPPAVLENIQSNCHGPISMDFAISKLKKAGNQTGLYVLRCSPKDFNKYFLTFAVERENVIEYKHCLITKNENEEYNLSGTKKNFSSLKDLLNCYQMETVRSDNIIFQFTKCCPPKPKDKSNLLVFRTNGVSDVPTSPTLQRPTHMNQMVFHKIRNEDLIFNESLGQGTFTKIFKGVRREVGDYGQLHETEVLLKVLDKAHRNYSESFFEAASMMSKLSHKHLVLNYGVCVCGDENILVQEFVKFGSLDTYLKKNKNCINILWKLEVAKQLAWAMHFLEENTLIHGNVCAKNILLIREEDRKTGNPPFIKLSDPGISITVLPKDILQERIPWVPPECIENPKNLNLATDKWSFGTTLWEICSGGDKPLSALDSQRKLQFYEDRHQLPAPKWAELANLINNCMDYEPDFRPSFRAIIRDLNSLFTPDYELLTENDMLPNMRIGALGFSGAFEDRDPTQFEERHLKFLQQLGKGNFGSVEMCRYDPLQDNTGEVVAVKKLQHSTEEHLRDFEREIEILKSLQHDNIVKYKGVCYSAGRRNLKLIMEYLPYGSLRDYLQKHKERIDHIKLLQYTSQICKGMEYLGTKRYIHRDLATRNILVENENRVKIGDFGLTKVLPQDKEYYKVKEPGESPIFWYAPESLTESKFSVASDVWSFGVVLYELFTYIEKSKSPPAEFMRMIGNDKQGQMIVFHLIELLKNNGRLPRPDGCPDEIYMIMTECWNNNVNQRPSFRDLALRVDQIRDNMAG
How it was run: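 Serum-starved TF1 cells with native JAK2/STAT5 were pretreated 1 h with compound (10-point four-fold dilutions from 10 μM), then stimulated 15 min with 30 ng/mL IL-3. pSTAT5 in lysates quantified by MSD immunoassay; normalized percent activity fitted to a 4-parameter logistic curve for IC50.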

[7] = target: Tyk2 kinase activity on STAT4 in NK92 cells (Homo sapiens, UniProt P29597); assay: pSTAT4 cell assay (MSD; NK92 cells, 30 ng/mL IL2 stimulation); format: cell-based; conditions: 30 ng/mL IL2, 15 minutes
Chain of Tyk2 kinase activity on STAT4 in NK92 cells (P29597 whole entry): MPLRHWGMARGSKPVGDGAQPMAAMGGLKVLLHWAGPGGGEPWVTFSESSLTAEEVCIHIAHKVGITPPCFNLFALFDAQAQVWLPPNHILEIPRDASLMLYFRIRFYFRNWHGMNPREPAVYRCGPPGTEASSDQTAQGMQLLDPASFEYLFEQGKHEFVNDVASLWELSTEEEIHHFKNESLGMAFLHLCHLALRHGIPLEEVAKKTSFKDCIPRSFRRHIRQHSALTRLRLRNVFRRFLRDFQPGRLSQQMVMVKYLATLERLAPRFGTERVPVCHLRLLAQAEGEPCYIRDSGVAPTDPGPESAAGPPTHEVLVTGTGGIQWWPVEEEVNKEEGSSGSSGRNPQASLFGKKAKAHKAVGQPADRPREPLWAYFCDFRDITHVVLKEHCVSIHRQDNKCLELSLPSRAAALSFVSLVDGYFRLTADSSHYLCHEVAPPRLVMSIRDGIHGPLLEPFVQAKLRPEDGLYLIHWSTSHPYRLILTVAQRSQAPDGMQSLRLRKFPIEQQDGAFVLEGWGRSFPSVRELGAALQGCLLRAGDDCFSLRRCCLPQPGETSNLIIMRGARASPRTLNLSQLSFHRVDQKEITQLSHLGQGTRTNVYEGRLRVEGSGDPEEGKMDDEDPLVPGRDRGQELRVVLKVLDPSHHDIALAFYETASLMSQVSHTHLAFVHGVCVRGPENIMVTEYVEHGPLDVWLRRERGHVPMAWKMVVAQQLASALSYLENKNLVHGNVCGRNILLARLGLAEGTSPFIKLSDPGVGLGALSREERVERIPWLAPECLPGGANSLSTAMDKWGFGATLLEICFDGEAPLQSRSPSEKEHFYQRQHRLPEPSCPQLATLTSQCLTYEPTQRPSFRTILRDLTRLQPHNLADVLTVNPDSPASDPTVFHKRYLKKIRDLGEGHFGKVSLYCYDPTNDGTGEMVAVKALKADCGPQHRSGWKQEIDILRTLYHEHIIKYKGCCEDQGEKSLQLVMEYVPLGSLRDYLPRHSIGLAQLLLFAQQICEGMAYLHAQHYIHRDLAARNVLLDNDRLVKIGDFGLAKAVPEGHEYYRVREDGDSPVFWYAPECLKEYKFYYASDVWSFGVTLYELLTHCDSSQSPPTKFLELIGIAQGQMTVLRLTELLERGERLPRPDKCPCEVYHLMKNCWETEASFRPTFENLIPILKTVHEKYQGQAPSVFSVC
How it was run: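 Serum-starved NK92 cells, which natively express Tyk2 and STAT4, were pretreated for 1 h with a 10-point 4-fold dilution series from 10 μM. They were then stimulated with 30 ng/mL IL2 for 15 min. Phospho-STAT in lysates was quantified by MSD with anti-STAT4 antibodies, and IC50 was obtained from 4-parameter logistic fits.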

Row | IC50 ([1]; JAK1 JH1, ADP-Glo) | IC50 ([2]; TYK2 JH1, ADP-Glo) | IC50 ([3]; JAK2 JH1, ADP-Glo) | IC50 ([4]; JAK3 JH1, ADP-Glo) | IC50 [5] | IC50 [6] | IC50 [7] | IC50 ([1]; JH1 kinase domain, ADP-Glo) | IC50 ([2]; JH1 kinase domain, ADP-Glo) | IC50 ([3]; JH1 kinase domain, ADP-Glo) | IC50 ([4]; JH1 kinase domain, ADP-Glo) | Structure (SMILES)
1 | 100 to 1000 nM | 5 to 20 nM | < 100 nM | 100 to 1000 nM | 1000 to 5000 nM | 1000 to 5000 nM | 50 to 100 nM | – | – | – | – | C[C@@H]1CN(c2c[nH]c3ncc(-c4cnn(C)c4)cc23)C(=O)[C@]1(C#N)C1CC1 [Example 288, (3R,4S)-3-cyclopropyl-4-methyl-1-(5-(1-methyl-1H-pyrazol-4-yl)-1H-pyrrolo[2,3-b]pyridin-3-yl)-2-oxopyrrolidine-3-carbonitrile]
2 | < 100 nM | < 5 nM | < 100 nM | < 100 nM | 1000 to 5000 nM | 100 to 1000 nM | 50 to 100 nM | – | – | – | – | C[C@@H]1CN(c2ccnn3cc(-c4cnn([C@H]5COCC(F)(F)C5)c4)cc23)C(=O)[C@]1(C#N)C1CC1 (single isomer, unassigned) [Example 327]
3 | – | – | – | – | 100 to 1000 nM | 100 to 1000 nM | 50 to 100 nM | < 100 nM | < 5 nM | < 100 nM | < 100 nM | CCn1cc(-c2cn3nccc3c(N3C[C@@H](C)[C@@](C#N)(C4CC4)C3=O)n2)cn1 [Example 202, (3R,4S)-3-cyclopropyl-1-(6-(1-ethyl-1H-pyrazol-4-yl)pyrazolo[1,5-a]pyrazin-4-yl)-4-methyl-2-oxopyrrolidine-3-carbonitrile]
4 | – | – | – | – | 100 to 1000 nM | 100 to 1000 nM | 50 to 100 nM | < 100 nM | < 5 nM | < 100 nM | < 100 nM | C[C@@H]1CN(c2nc(-c3cnn(C4CC4(F)F)c3)cn3nccc23)C(=O)[C@]1(C#N)C1CC1 (stereo partly drawn) [Example 198, (3R,4S)-3-cyclopropyl-1-(6-(1-(2,2-difluorocyclopropyl)-1H-pyrazol-4-yl)pyrazolo[1,5-a]pyrazin-4-yl)-4-methyl-2-oxopyrrolidine-3-carbonitrile]
5 | – | – | – | – | 100 to 1000 nM | 1000 to 5000 nM | 20 to 50 nM | < 100 nM | < 5 nM | < 100 nM | < 100 nM | CC(C)n1cc(-c2cn3ncc(F)c3c(N3C[C@@H](C)[C@@](C#N)(C4CC4)C3=O)n2)cn1 [Example 190, (3R,4S)-3-cyclopropyl-1-(3-fluoro-6-(1-isopropyl-1H-pyrazol-4-yl)pyrazolo[1,5-a]pyrazin-4-yl)-4-methyl-2-oxopyrrolidine-3-carbonitrile]
6 | < 100 nM | < 5 nM | 100 to 1000 nM | < 100 nM | 100 to 1000 nM | 1000 to 5000 nM | 20 to 50 nM | – | – | – | – | C[C@@H]1CN(c2nc(-c3cnn(-c4ccccn4)c3)cn3nccc23)C(=O)[C@]1(C#N)C1CC1 [Example 296, (3R,4S)-3-cyclopropyl-4-methyl-2-oxo-1-(6-(1-(pyridin-2-yl)-1H-pyrazol-4-yl)pyrazolo[1,5-a]pyrazin-4-yl)pyrrolidine-3-carbonitrile]
7 | – | – | – | – | > 10000 nM | > 10000 nM | > 100 nM | 100 to 1000 nM | 5 to 20 nM | 100 to 1000 nM | 100 to 1000 nM | C[C@@H]1CN(c2ccnn3cc(-c4ccn(C)c(=O)c4)cc23)C(=O)[C@]1(C#N)C1CC1 [Example 79, (3R,4S)-3-cyclopropyl-4-methyl-1-(6-(1-methyl-2-oxo-1,2-dihydropyridin-4-yl)pyrrolo[1,2-b]pyridazin-4-yl)-2-oxopyrrolidine-3-carbonitrile]
8 | – | – | – | – | 5000 to 10000 nM | 5000 to 10000 nM | > 100 nM | < 100 nM | < 5 nM | < 100 nM | < 100 nM | C[C@@H]1CN(c2ccnn3cc(-c4cnn(C5CCCC5)c4)cc23)C(=O)[C@]1(C#N)C1CC1 [Example 170, (3R,4S)-1-(6-(1-cyclopentyl-1H-pyrazol-4-yl)pyrrolo[1,2-b]pyridazin-4-yl)-3-cyclopropyl-4-methyl-2-oxopyrrolidine-3-carbonitrile]
9 | – | – | – | – | < 100 nM | 100 to 1000 nM | 5 to 20 nM | < 100 nM | < 5 nM | < 100 nM | < 100 nM | C[C@@H]1CN(c2ccnc3[nH]c(-c4cnn(C)c4)cc23)C(=O)[C@]1(C#N)C1CC1 [Example 1, (3R,4S)-3-cyclopropyl-4-methyl-1-(2-(1-methyl-1H-pyrazol-4-yl)-1H-pyrrolo[2,3-b]pyridin-4-yl)-2-oxopyrrolidine-3-carbonitrile]
10 | < 100 nM | < 5 nM | < 100 nM | < 100 nM | < 100 nM | 100 to 1000 nM | 20 to 50 nM | – | – | – | – | C[C@@H]1CN(c2nc(-c3ccc4nccn4c3)cn3nccc23)C(=O)[C@]1(C#N)C1CC1 [Example 263, (3R,4S)-3-cyclopropyl-1-(6-(imidazo[1,2-a]pyridin-6-yl)pyrazolo[1,5-a]pyrazin-4-yl)-4-methyl-2-oxopyrrolidine-3-carbonitrile trifluoroacetate]
11 | – | – | – | – | 100 to 1000 nM | 100 to 1000 nM | 20 to 50 nM | < 100 nM | < 5 nM | < 100 nM | < 100 nM | [2H]C([2H])([2H])n1cc(-c2cn3nccc3c(N3C[C@@H](C)[C@@](C#N)(C4CC4)C3=O)n2)cn1 [Example 201, (3R,4S)-3-cyclopropyl-4-methyl-1-(6-(1-(methyl-d3)-1H-pyrazol-4-yl)pyrazolo[1,5-a]pyrazin-4-yl)-2-oxopyrrolidine-3-carbonitrile]
12 | < 100 nM | < 5 nM | 100 to 1000 nM | < 100 nM | 1000 to 5000 nM | 1000 to 5000 nM | > 100 nM | – | – | – | – | CC(C)n1cc(-c2cc3nccc(N4C[C@@H](C)[C@@](C#N)(C5CC5)C4=O)c3o2)cn1 [Example 346, (3R,4S)-3-cyclopropyl-1-(2-(1-isopropyl-1H-pyrazol-4-yl)furo[3,2-b]pyridin-7-yl)-4-methyl-2-oxopyrrolidine-3-carbonitrile]
13 | – | – | – | – | 1000 to 5000 nM | 1000 to 5000 nM | 20 to 50 nM | 100 to 1000 nM | < 5 nM | 100 to 1000 nM | 100 to 1000 nM | C[C@@H]1CN(c2ccnn3cc(-c4cnn(C5CC5)c4)cc23)C(=O)[C@]1(C#N)C1CC1 [Example 161, (3R,4S)-3-cyclopropyl-1-(6-(1-cyclopropyl-1H-pyrazol-4-yl)pyrrolo[1,2-b]pyridazin-4-yl)-4-methyl-2-oxopyrrolidine-3-carbonitrile]
14 | – | – | – | – | > 10000 nM | > 10000 nM | > 100 nM | 100 to 1000 nM | < 5 nM | 100 to 1000 nM | 100 to 1000 nM | C[C@@H]1CN(c2ccnn3cc(-c4cn(C)cn4)cc23)C(=O)[C@]1(C#N)C1CC1 [Example 111, (3R,4S)-3-cyclopropyl-4-methyl-1-(6-(1-methyl-1H-imidazol-4-yl)pyrrolo[1,2-b]pyridazin-4-yl)-2-oxopyrrolidine-3-carbonitrile trifluoroacetate]
15 | < 100 nM | < 5 nM | 100 to 1000 nM | < 100 nM | 100 to 1000 nM | 1000 to 5000 nM | 50 to 100 nM | – | – | – | – | C[C@@H]1CN(c2cc(-c3cnn(C)c3)cc3ncsc23)C(=O)[C@]1(C#N)C1CC1 [Example 350, (3R,4S)-3-cyclopropyl-4-methyl-1-(5-(1-methyl-1H-pyrazol-4-yl)benzo[d]thiazol-7-yl)-2-oxopyrrolidine-3-carbonitrile]
16 | < 100 nM | < 5 nM | < 100 nM | < 100 nM | 100 to 1000 nM | 1000 to 5000 nM | 50 to 100 nM | – | – | – | – | C[C@@H]1CN(c2nc(-c3cnn(CC4(C#N)CC4)c3)cn3ncc(F)c23)C(=O)[C@]1(C#N)C1CC1 [Example 302, (3R,4S)-1-(6-(1-((1-cyanocyclopropyl)methyl)-1H-pyrazol-4-yl)-3-fluoropyrazolo[1,5-a]pyrazin-4-yl)-3-cyclopropyl-4-methyl-2-oxopyrrolidine-3-carbonitrile]
